Data: patent US11773094B2, “Farnesoid X receptor agonists and uses thereof” (Metacrine, Inc., priority 2018, dated 2023)

target: T1, hFXR (Homo sapiens, UniProt Q96RI1); assay: In Vitro FXR Assay (TK): TK-ECRE-luc reporter in transfected CV-1 cells; format: cell-based; settings: CV-1 cells transfected with hFXR, hRXR, pCMX-YFP, 18 hrs incubation, luminescence
T1 construct: expressed in transfected cells; host or cells: CV-1 cells
T1 sequence (Q96RI1 1-486): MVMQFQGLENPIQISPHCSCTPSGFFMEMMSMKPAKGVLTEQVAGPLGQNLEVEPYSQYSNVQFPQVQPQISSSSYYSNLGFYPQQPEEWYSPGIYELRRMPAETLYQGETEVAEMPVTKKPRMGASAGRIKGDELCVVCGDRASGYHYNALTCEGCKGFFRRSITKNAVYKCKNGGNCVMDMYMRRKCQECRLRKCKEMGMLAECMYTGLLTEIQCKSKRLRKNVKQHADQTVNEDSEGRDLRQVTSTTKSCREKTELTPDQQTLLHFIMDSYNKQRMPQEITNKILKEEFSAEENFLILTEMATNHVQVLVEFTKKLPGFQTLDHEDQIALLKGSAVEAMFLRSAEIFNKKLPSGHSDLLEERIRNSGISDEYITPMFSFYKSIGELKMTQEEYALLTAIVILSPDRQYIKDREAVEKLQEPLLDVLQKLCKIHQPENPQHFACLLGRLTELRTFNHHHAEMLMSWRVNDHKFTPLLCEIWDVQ
T1 sequence (P19793 1-462 partner): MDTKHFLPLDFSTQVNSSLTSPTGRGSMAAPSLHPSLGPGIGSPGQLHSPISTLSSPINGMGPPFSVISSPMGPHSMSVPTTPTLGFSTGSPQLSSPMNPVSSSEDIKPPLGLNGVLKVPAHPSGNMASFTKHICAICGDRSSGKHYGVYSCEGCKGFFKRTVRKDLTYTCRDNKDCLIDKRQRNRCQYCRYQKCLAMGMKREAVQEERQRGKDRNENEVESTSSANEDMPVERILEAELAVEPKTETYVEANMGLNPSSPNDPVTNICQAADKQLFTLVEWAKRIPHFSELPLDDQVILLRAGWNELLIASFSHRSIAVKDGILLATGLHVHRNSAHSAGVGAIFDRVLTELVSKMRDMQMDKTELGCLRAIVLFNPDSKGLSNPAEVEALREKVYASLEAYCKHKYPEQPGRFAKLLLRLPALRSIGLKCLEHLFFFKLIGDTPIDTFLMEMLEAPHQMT
Outline: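 Luciferase read-out from lysed CV-1 cells carrying transfected hFXR, hRXR, TK-ECRE-luc and pCMX-YFP. Test compounds, DMSO serial dilutions, were incubated with the cells for 18 h before lysis. Cells grew in charcoal-stripped serum medium.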

`COc1ccc(C23CCC(CN(c4cc(-c5cnc(C(C)(C)C)s5)ccn4)C(=O)[C@H]4CC[C@H](OC(=O)NCCO)CC4)(CC2)CC3)cc1C` [Compound 2.06, 4-((4-(2-(tert-Butyl)thiazol-5-yl)pyridin-2-yl)((4-(4-methoxy-3-methylphenyl)bicyclo[2.2.2]octan-1-yl)methyl)carbamoyl)cyclohexyl (2-hydroxyethyl)trans-carbamate] and `COc1ccc(C23CCC(CN(c4cc(-c5cnn(C(C)(C)C)c5)ccn4)C(=O)[C@H]4CC[C@H](OC(=O)NCCO)CC4)(CC2)CC3)cc1C` [Compound 2.30, 4-((4-(1-(tert-Butyl)-1H-pyrazol-4-yl)pyridin-2-yl)((4-(4-methoxy-3-methylphenyl)bicyclo[2.2.2]octan-1-yl)methyl)carbamoyl)cyclohexyl (2-hydroxyethyl)trans-carbamate] cannot be ordered by EC50: ≤ 10 nM for the first, ≤ 10 nM for the second.

`COc1ccc(C23CCC(CN(c4cc(-n5ccc(C(C)(C)C)n5)ccn4)C(=O)[C@H]4CC[C@H](OC(=O)N5CC(O)C5)CC4)(CC2)CC3)cc1C` [Compound 2.35, 4-((4-(3-(tert-Butyl)-1H-pyrazol-1-yl)pyridin-2-yl)((4-(4-methoxy-3-methylphenyl)bicyclo[2.2.2]octan-1-yl)methyl)carbamoyl) cyclohexyl trans-3-hydroxyazetidine-1-carboxylate] and `COc1ccc([C@]23CC[C@@](CN(c4cc(-c5cnn(C(C)(C)C)c5)ccn4)C(=O)[C@H]4CC[C@H](OC(=O)N5CC(CO)C5)CC4)(CC2)CC3)cc1C` [Compound 3.02, 4-((4-(1-(tert-Butyl)-1H-pyrazol-4-yl)pyridin-2-yl)(trans(4-(4-methoxy-3-methylphenyl)bicyclo[2.2.2]octan-1-yl)methyl)carbamoyl) (trans-cyclohexyl) 3-(hydroxymethyl)azetidine-1-carboxylate] cannot be ordered by EC50: 10 to 1000 nM for the first, ≤ 10 nM for the second.

`COc1ccc([C@H]2CC[C@H](CN(c3cc(-c4cnc(C(C)(C)C)s4)ccn3)C(=O)[C@H]3CC[C@H](OC(=O)NC4CCOCC4)CC3)CC2)cc1C` [Compound 1] and `COc1ccc(C23CCC(CN(c4cc(-c5cnc(C(C)(C)C)s5)ccn4)C(=O)[C@H]4CC[C@H](OC(=O)NC5CCOCC5)CC4)(CC2)CC3)cc1C` [Compound 3.09, 4-((4-(2-(tert-Butyl)thiazol-5-yl)pyridin-2-yl)((4-(4-methoxy-3-methylphenyl)bicyclo[2.2.2]octan-1-yl)methyl)carbamoyl) cyclohexyl (tetrahydro-2H-pyran-4-yl)trans-carbamate] fall in the same range of EC50: 10 to 1000 nM for the first, 10 to 1000 nM for the second.

`COc1ccc(C23CCC(CN(c4cc(-c5cnn(C(C)(C)C)c5)ccn4)C(=O)[C@H]4CC[C@H](OC(=O)NC5CCSCC5)CC4)(CC2)CC3)cc1C` [Compound 2.29, 4-((4-(1-(tert-Butyl)-1H-pyrazol-4-yl)pyridin-2-yl)((4-(4-methoxy-3-methylphenyl)bicyclo[2.2.2]octan-1-yl)methyl)carbamoyl)cyclohexyl trans-(tetrahydro-2H-thiopyran-4-yl)carbamate] and `COc1ccc(C23CCC(CN(c4cc(-c5cnn(C(C)(C)C)c5)ccn4)C(=O)[C@H]4CC[C@H](OC(=O)NC5CCOCC5)CC4)(CC2)CC3)cc1C` [Compound 3.01, 4-((4-(1-(tert-Butyl)-1H-pyrazol-4-yl)pyridin-2-yl)((4-(4-methoxy-3-methylphenyl)bicyclo[2.2.2]octan-1-yl)methyl)carbamoyl) cyclohexyl (tetrahydro-2H-pyran-4-yl)trans-carbamate] cannot be ordered by EC50: 10 to 1000 nM for the first, ≤ 10 nM for the second.

`COc1ccc(C23CCC(CN(c4cncc(-c5cnn(C(C)(C)C)c5)n4)C(=O)[C@H]4CC[C@H](OC(=O)N5CC(O)C5)CC4)(CC2)CC3)cc1C` [Compound 3.12, 4-((6-(1-(tert-Butyl)-1H-pyrazol-4-yl)pyrazin-2-yl)((4-(4-methoxy-3-methylphenyl)bicyclo[2.2.2]octan-1-yl)methyl)carbamoyl) (trans-cyclohexyl) 3-hydroxyazetidine-1-carboxylate] and `COc1ccc(C23CCC(CN(c4cc(-c5cnn(C(C)(C)C)c5)ccn4)C(=O)[C@H]4CC[C@H](OC(=O)N5CC(OCCO)C5)CC4)(CC2)CC3)cc1C` [Compound 2.25, 4-((4-(1-(tert-Butyl)-1H-pyrazol-4-yl)pyridin-2-yl)((4-(4-methoxy-3-methylphenyl)bicyclo[2.2.2]octan-1-yl)methyl)carbamoyl) (trans-cyclohexyl) 3-(2-hydroxyethoxy)azetidine-1-carboxylate] cannot be ordered by EC50: 10 to 1000 nM for the first, ≤ 10 nM for the second.

`COc1ccc(C23CCC(CN(c4cc(-c5cnn(C(C)(C)C)c5)ccn4)C(=O)[C@H]4CC[C@H](OC(=O)N5CC(C)(O)C5)CC4)(CC2)CC3)cc1C` [Compound 2.22, 4-((4-(1-(tert-Butyl)-1H-pyrazol-4-yl)pyridin-2-yl)((4-(4-methoxy-3-methylphenyl)bicyclo[2.2.2]octan-1-yl)methyl)carbamoyl) (trans-cyclohexyl) 3-hydroxy-3-methylazetidine-1-carboxylate] and `COc1ccc(C23CCC(CN(c4cc(-c5coc(C(C)(C)C)n5)ccn4)C(=O)[C@H]4CC[C@H](OC(=O)N5CC(C)(O)C5)CC4)(CC2)CC3)cc1C` [Compound 2.12, 4-((4-(2-(tert-Butyl)oxazol-4-yl)pyridin-2-yl)((4-(4-methoxy-3-methylphenyl)bicyclo[2.2.2]octan-1-yl)methyl)carbamoyl) (trans-cyclohexyl) 3-hydroxy-3-methylazetidine-1-carboxylate] cannot be ordered by EC50: ≤ 10 nM for the first, ≤ 10 nM for the second.

`COc1ccc(C23CCC(CN(c4cc(-c5coc(C(C)(C)C)n5)ccn4)C(=O)[C@H]4CC[C@H](OC(=O)N5CCC(N(C)C)C5)CC4)(CC2)CC3)cc1C` (stereo partly drawn) [Compound 2.16, 4-((4-(2-(tert-Butyl)oxazol-4-yl)pyridin-2-yl)((4-(4-methoxy-3-methylphenyl)bicyclo[2.2.2]octan-1-yl)methyl)carbamoyl)cyclohexyl 3-(dimethylamino)pyrrolidine- trans-1-carboxylate] and `COc1ccc(C23CCC(CN(c4cc(-c5coc(C(C)(C)C)n5)ccn4)C(=O)[C@H]4CC[C@H](OC(=O)N5CC(OCCO)C5)CC4)(CC2)CC3)cc1C` [Compound 2.14, 4-((4-(2-(tert-Butyl)oxazol-4-yl)pyridin-2-yl)((4-(4-methoxy-3-methylphenyl)bicyclo[2.2.2]octan-1-yl)methyl)carbamoyl) (trans-cyclohexyl) 3-(2-hydroxyethoxy)azetidine-1-carboxylate] cannot be ordered by EC50: 10 to 1000 nM for the first, ≤ 10 nM for the second.

`CCC(C)(C)n1cc(-c2ccnc(N(CC34CCC(c5ccc(OC)c(C)c5)(CC3)CC4)C(=O)[C@H]3CC[C@H](OC(=O)N4CCC(O)CC4)CC3)c2)cn1` [Compound 4.02, 4-(((4-(4-Methoxy-3-methylphenyl)bicyclo[2.2.2]octan-1-yl)methyl)(4-(1-(tert-pentyl)-1H-pyrazol-4-yl)pyridin-2-yl)carbamoyl) cyclohexyl trans-4-hydroxypiperidine-1-carboxylate] and `CCC(C)(C)n1cc(-c2ccnc(N(CC34CCC(c5ccc(OC)c(C)c5)(CC3)CC4)C(=O)[C@H]3CC[C@H](OC(=O)NCCCO)CC3)c2)cn1` [Compound 4.03, 4-(((4-(4-Methoxy-3-methylphenyl)bicyclo[2.2.2]octan-1-yl)methyl)(4-(1-(tert-pentyl)-1H-pyrazol-4-yl)pyridin-2-yl)carbamoyl) cyclohexyl trans-(3-hydroxypropyl)carbamate] cannot be ordered by EC50: ≤ 10 nM for the first, ≤ 10 nM for the second.

With `COc1ccc(C23CCC(CN(c4cc(-c5coc(C(C)(C)C)n5)ccn4)C(=O)[C@H]4CC[C@H](OC(=O)NCCCO)CC4)(CC2)CC3)cc1C` [Compound 2, 4-((4-(2-(tert-Butyl)oxazol-4-yl)pyridin-2-yl)((4-(4-methoxy-3-methylphenyl)bicyclo[2.2.2]octan-1-yl)methyl)carbamoyl) (trans-cyclohexyl) (3-hydroxypropyl)carbamate] the EC50 was ≤ 10 nM.
